Results published in patent publication US20090143396A1, “Sulfonyl-Substituted Aryl Compounds as Modulators of Peroxisome Proliferator Activated Receptors” (priority 2005, published 2009).

Experiments:
Format in all cases: cell-based, murine and human
Details in all cases: GAL4 chimeric receptor, 20-24 hours treatment
[1] = target: T1, PPAR-delta (UniProt Q03181); test: Transient transfection transactivation assay in CV-1 cells, GAL4-PPAR-delta LBD chimera, luciferase reporter
T1 sequence (Q03181 1-441): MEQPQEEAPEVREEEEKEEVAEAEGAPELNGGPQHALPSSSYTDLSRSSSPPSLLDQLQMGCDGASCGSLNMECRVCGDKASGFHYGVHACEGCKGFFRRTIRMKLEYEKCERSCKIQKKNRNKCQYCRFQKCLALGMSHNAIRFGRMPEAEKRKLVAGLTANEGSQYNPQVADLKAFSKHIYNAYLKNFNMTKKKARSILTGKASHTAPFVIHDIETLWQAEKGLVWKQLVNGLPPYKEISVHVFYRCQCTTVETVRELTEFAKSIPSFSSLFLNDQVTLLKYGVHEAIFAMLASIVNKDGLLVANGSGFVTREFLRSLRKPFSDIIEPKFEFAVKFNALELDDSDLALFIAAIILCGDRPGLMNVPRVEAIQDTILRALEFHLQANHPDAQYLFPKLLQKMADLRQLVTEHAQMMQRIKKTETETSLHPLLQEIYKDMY
From the text: (§1) Compounds may be screened for functional potency in transient transfection assays in CV-1 cells for their ability to activate the PPAR subtypes (transactivation assay). A previously established chimeric receptor system was utilized to allow comparison of the relative transcriptional activity of the receptor subtypes on the same synthetic response element and to prevent endogenous receptor activation from complicating the interpretation of results. See, for example, Lehmann, J. M.; Moore, L. B.; Smith-Oliver, T. A; Wilkinson, W. O.; Willson, T. M.; Kliewer, S. A., An antidiabetic thiazolidinedione is a high affinity ligand for peroxisome proliferator-activated receptor […], J. Biol. Chem., 1995, 270, 12953-6. The ligand binding domains for murine and human PPAR-alpha, PPAR-gamma, and PPAR-delta are each fused to the yeast transcription factor GAL4 DNA binding domain. CV-1 cells were transiently transfected with expression vectors for the respective PPAR chimera along with a reporter construct containing four or five copies of the GAL4 DNA binding site driving expression of luciferase. After 8-16 h, the cells are replated into multi-well assay plates and the media is exchanged to phenol-red free DME medium supplemented with 5% delipidated calf serum. 4 hours after replating, cells were treated with either compounds or 1% DMSO for 20-24 hours. Luciferase activity was then assayed with Britelite (Perkin Elmer) following the manufacturer's protocol and measured with either the Perl in Elmer Viewlux or Molecular Devices Acquest (see, for example, Kliewer, S. A., et. al. Cell 1995, 83, 813-819). Rosiglitazone is used as a positive control in the […] assay. Wy-14643 and GW7647 is used as a positive control in the […] assay. GW501516 is used as the positive control in the PPARδ assay.
(§2) Compounds of Examples 1-10 were assayed to measure their biological activity with respect to their EC50 values and efficacy for modulating PPAR-alpha, PPAR-gamma, and PPAR-delta as set forth in Table 1.

[2] = target: T2, PPAR-gamma (UniProt P37231); test: Transient transfection transactivation assay in CV-1 cells, GAL4-PPAR-gamma LBD chimera, luciferase reporter
T2 sequence (P37231 1-505): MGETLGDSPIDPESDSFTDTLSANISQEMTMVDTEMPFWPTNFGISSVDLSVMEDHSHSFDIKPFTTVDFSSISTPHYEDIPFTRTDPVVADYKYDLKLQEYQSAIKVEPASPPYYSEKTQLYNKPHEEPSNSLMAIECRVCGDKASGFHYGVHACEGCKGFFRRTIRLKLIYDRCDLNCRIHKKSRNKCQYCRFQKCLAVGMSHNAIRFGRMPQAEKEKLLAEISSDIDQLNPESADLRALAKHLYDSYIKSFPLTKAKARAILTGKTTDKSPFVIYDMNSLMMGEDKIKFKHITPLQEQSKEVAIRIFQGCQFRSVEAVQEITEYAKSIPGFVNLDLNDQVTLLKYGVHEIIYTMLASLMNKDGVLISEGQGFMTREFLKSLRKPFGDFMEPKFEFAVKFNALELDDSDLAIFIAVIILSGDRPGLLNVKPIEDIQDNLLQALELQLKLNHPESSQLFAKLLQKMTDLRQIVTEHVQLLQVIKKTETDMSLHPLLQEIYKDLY
From the text: as §1, §2

[3] = target: T3, PPAR-alpha (UniProt Q07869); test: Transient transfection transactivation assay in CV-1 cells, GAL4-PPAR-alpha LBD chimera, luciferase reporter
T3 sequence (Q07869 1-468): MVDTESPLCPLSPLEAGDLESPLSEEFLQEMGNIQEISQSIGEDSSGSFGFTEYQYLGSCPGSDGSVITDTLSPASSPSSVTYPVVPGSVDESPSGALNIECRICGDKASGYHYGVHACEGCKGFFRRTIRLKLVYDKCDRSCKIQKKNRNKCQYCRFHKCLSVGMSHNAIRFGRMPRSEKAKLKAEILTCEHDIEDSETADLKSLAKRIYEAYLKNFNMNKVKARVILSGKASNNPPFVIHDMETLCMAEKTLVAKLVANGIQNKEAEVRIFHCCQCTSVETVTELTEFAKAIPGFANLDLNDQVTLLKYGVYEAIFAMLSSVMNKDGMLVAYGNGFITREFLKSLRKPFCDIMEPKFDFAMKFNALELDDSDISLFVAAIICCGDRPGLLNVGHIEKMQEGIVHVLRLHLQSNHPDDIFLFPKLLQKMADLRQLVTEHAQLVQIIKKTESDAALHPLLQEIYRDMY
From the text: as §1, §2

Work on `Cc1ccc(S(=O)(=O)N2CCN(Cc3ccc(OC(F)(F)F)cc3)CC2)cc1CC(=O)O` [Example 3, {2-Methyl-5-[4-(4-trifluoromethoxy-benzyl)-piperazine-1-sulfonyl]-phenyl}-acetic acid] yielded an EC50 [1] of less than 5 µM, an EC50 [2] of less than 5 µM and an EC50 [3] of less than 5 µM.

Compound `Cc1ccc(S(=O)(=O)N2CCN(Cc3ccc(C(F)(F)F)cc3)CC2)cc1CC(=O)O` [Example 4, {2-Methyl-5-[4-(4-trifluoromethyl-benzyl)-piperazine-1-sulfonyl]-phenyl}-acetic acid] has an EC50 [1] of less than 5 µM, an EC50 [2] of less than 5 µM and an EC50 [3] of less than 5 µM.

`Cc1cc(CC(=O)O)cc(S(=O)(=O)N2[C@H](C)CN(Cc3ccc(OC(F)(F)F)cc3)C[C@@H]2C)c1` [Example 5, {3-[2,6-Dimethyl-4-(4-trifluoromethoxy-benzyl)-piperazine-1-sulfonyl]-5-methyl-phenyl}-acetic acid] gave an EC50 [1] of less than 5 µM, an EC50 [2] greater than 100 µM and an EC50 [3] of 5 to 100 µM.

`C[C@@H]1CN(Cc2ccc(OC(F)(F)F)cc2)C[C@H](C)N1S(=O)(=O)c1cccc(CC(=O)O)c1` [Example 6, {3-[2,6-Dimethyl-4-(4-trifluoromethoxy-benzyl)-piperazine-1-sulfonyl]-phenyl}-acetic acid] was tested, and the EC50 [1] was less than 5 µM, the EC50 [2] was less than 5 µM and the EC50 [3] was 5 to 100 µM.

With `C#Cc1cc(CC(=O)O)cc(S(=O)(=O)N2CCN(Cc3ccc(OC(F)(F)F)cc3)CC2)c1` [Example 8, 2-{3-Ethynyl-5-[-4-(4-trifluoromethoxybenzyl)piperazine-1-ylsulfonyl]phenyl}acetic acid] the EC50 [1] was less than 5 µM, the EC50 [2] was less than 5 µM and the EC50 [3] was less than 5 µM.

`Cc1ccc(S(=O)(=O)N2[C@H](C)CN(Cc3ccc(C(F)(F)F)cc3)C[C@@H]2C)cc1CC(=O)O` [Example 2, {5-[2,6-Dimethyl-4-(4-trifluoromethyl-benzyl)-piperazine-1-sulfonyl]-2-methyl-phenyl}-acetic acid] showed an EC50 [1] of less than 5 µM, an EC50 [2] of 5 to 100 µM and an EC50 [3] of less than 5 µM.

`Cc1ccc(S(=O)(=O)N2[C@H](C)CN(C(=O)Cc3ccc(OC(F)(F)F)cc3)C[C@@H]2C)cc1CC(=O)O` [Example 10, 2-(5-((2R,6S)-2,6-dimethyl-4-(2-(4-(trifluoromethoxy)phenyl)acetyl)piperazin-1-ylsulfonyl)-2-methylphenyl)acetic acid] showed an EC50 [1] of less than 5 µM, an EC50 [2] greater than 100 µM and an EC50 [3] greater than 100 µM.

`C#Cc1cc(CC(=O)O)cc(S(=O)(=O)N2CCN(Cc3cccc(OC(F)(F)F)c3)CC2)c1` [Example 9, 2-{3-Ethynyl-5-[4-(3-trifluoromethoxybenzyl)piperazine-1-ylsulfonyl]phenyl}acetic acid] showed an EC50 [1] of less than 5 µM, an EC50 [2] of less than 5 µM and an EC50 [3] of less than 5 µM.

For `Cc1ccc(S(=O)(=O)N2[C@H](C)CN(Cc3ccc(Cl)c(Cl)c3)C[C@@H]2C)cc1CC(=O)O` [Example 7, {5-[4-(3,4-Dichloro-benzyl)-2,6-dimethyl-piperazine-1-sulfonyl]-2-methyl-phenyl}-acetic acid], the EC50 [1] was less than 5 µM, the EC50 [2] was greater than 100 µM and the EC50 [3] was less than 5 µM.

`Cc1ccc(S(=O)(=O)N2[C@H](C)CN(Cc3ccc(OC(F)(F)F)cc3)C[C@@H]2C)cc1CC(=O)O` [Example 1, {5-[2,6-Dimethyl-4-(4-trifluoromethoxy-benzyl)-piperazine-1-sulfonyl]-2-methyl-phenyl}-acetic acid] showed an EC50 [1] of less than 5 µM, an EC50 [2] greater than 100 µM and an EC50 [3] of less than 5 µM.
